Assay results as given in patent EP4722212A1, “NOVEL COMPOUND FOR INHIBITING PROTEIN KINASES AND PHARMACEUTICAL COMPOSITION COMPRISING SAME” (Magicbullettherapeutics Co., Ltd., priority 2023, dated 2024).
Read-outs that look alike come from different tables or passages of the source.

Experiments:
Assay in all cases: Kinase panel
Type in all cases: biochemical
ALK6/BMPR1B = ALK6/BMPR1B (Homo sapiens, UniProt O00238); conditions: read-out: residual enzyme activity
Outline: (§1)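 Compound at 1 µM was screened against a complete panel of purified kinases in biochemical format. Activity left after treatment was calculated and kinases inhibited by 60% or more were selected.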

AXL = AXL (Homo sapiens, UniProt P30530); conditions: read-out: residual enzyme activity
Outline: as §1

C-KIT = C-KIT (Homo sapiens, UniProt P10721); conditions: read-out: residual enzyme activity
Outline: as §1

C-MER = C-MER (Homo sapiens, UniProt Q12866); conditions: read-out: residual enzyme activity
Outline: as §1

CAMK2A = CAMK2A (Homo sapiens, UniProt Q9UQM7); conditions: read-out: residual enzyme activity
Outline: as §1

CAMK2B = CAMK2B (Homo sapiens, UniProt Q13554); conditions: read-out: residual enzyme activity
Outline: as §1

CDK1/CYCLIN E = CDK1/CYCLIN E (Homo sapiens, UniProt P06493); conditions: read-out: residual enzyme activity
Outline: as §1

CDK17/CYCLIN Y (PCTK2) = CDK17/CYCLIN Y (PCTK2) (Homo sapiens, UniProt Q00537); conditions: read-out: residual enzyme activity
Outline: as §1

CHK2 = CHK2 (Homo sapiens, UniProt O96017); conditions: CHK2, 1 µM; read-out: residual enzyme activity
Outline: as §1

CLK4 = CLK4 (Homo sapiens, UniProt Q9HAZ1); conditions: CLK4, 1 µM; read-out: residual enzyme activity
Outline: as §1

ERBB4/HER4 = ERBB4/HER4 (Homo sapiens, UniProt Q15303); conditions: ERBB4/HER4, 1 µM; read-out: residual enzyme activity
Outline: as §1

GRK2 = GRK2 (Homo sapiens, UniProt P25098); conditions: GRK2, 1 µM; read-out: residual enzyme activity
Outline: as §1

HCK = HCK (Homo sapiens, UniProt P08631); conditions: read-out: residual enzyme activity
Outline: as §1

HGK/MAP4K4 = HGK/MAP4K4 (Homo sapiens, UniProt O95819); conditions: HGK/MAP4K4, 1 µM; read-out: residual enzyme activity
Outline: as §1

HIPK1 = HIPK1 (Homo sapiens, UniProt Q86Z02); conditions: HIPK1, 1 µM; read-out: residual enzyme activity
Outline: as §1

IKKB/IKBKB = IKKB/IKBKB (Homo sapiens, UniProt O14920); conditions: read-out: residual enzyme activity
Outline: as §1

JNK3 = JNK3 (Homo sapiens, UniProt P53779); conditions: JNK3, 1 µM; read-out: residual enzyme activity
Outline: as §1

LATS1 = LATS1 (Homo sapiens, UniProt O95835); conditions: LATS1, 1 µM; read-out: residual enzyme activity
Outline: as §1

MEK1 = MEK1 (Homo sapiens, UniProt Q02750); conditions: MEK1, 1 µM; read-out: residual enzyme activity
Outline: as §1

MLCK/MYLK = MLCK/MYLK (Homo sapiens, UniProt Q15746); conditions: read-out: residual enzyme activity
Outline: as §1

MST3/STK24 = MST3/STK24 (Homo sapiens, UniProt Q9Y6E0); conditions: MST3/STK24, 1 µM; read-out: residual enzyme activity
Outline: as §1

MST4 = MST4 (Homo sapiens, UniProt Q9P289); conditions: MST4, 1 µM; read-out: residual enzyme activity
Outline: as §1

NEK7 = NEK7 (Homo sapiens, UniProt Q8TDX7); conditions: NEK7, 1 µM; read-out: residual enzyme activity
Outline: as §1

PAK1 = PAK1 (Homo sapiens, UniProt Q13153); conditions: PAK1, 1 µM; read-out: residual enzyme activity
Outline: as §1

PASK = PASK (Homo sapiens, UniProt Q96RG2); conditions: read-out: residual enzyme activity
Outline: as §1

PIM3 = PIM3 (Homo sapiens, UniProt Q86V86); conditions: PIM3, 1 µM; read-out: residual enzyme activity
Outline: as §1

PKACB = PKACB (Homo sapiens, UniProt P22694); conditions: read-out: residual enzyme activity
Outline: as §1

PKCNU/PRKD3 = PKCNU/PRKD3 (Homo sapiens, UniProt O94806); conditions: PKCnu/PRKD3, 1 µM; read-out: residual enzyme activity
Outline: as §1

RON/MSTIR = RON/MSTIR (Homo sapiens, UniProt Q04912); conditions: read-out: residual enzyme activity
Outline: as §1

RSK4 = RSK4 (Homo sapiens, UniProt Q9UK32); conditions: RSK4, 1 µM; read-out: residual enzyme activity
Outline: as §1

SIK3 = SIK3 (Homo sapiens, UniProt Q9Y2K2); conditions: SIK3, 1 µM; read-out: residual enzyme activity
Outline: as §1

SNRK = SNRK (Homo sapiens, UniProt Q9NRH2); conditions: read-out: residual enzyme activity
Outline: as §1

TBK1 = TBK1 (Homo sapiens, UniProt Q9UHD2); conditions: TBK1, 1 µM; read-out: residual enzyme activity
Outline: as §1

TIE2/TEK = TIE2/TEK (Homo sapiens, UniProt Q02763); conditions: read-out: residual enzyme activity
Outline: as §1

TNK1 = TNK1 (Homo sapiens, UniProt Q13470); conditions: TNK1, 1 µM; read-out: residual enzyme activity
Outline: as §1

Chain of RSK4 (Q9UK32 whole entry, species assumed): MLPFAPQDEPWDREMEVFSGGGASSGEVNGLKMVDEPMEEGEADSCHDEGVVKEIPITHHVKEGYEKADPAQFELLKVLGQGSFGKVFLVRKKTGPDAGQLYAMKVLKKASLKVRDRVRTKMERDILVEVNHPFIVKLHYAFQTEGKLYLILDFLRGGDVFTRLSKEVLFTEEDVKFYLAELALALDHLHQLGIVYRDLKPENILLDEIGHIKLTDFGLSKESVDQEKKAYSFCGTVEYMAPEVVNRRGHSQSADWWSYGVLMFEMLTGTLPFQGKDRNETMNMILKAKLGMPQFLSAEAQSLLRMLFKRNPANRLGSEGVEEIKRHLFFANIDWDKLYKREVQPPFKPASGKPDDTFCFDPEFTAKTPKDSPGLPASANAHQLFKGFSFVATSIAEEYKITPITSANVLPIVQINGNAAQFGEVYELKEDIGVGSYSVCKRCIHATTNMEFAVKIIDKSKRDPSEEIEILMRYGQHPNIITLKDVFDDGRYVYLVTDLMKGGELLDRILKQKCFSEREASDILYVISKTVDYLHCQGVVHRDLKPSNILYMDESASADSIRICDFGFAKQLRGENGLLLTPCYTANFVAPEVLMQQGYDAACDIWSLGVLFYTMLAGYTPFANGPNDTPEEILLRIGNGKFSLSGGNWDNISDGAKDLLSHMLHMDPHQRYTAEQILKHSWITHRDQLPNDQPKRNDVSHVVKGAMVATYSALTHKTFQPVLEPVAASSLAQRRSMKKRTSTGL
Chain of MST3/STK24 (Q9Y6E0 whole entry): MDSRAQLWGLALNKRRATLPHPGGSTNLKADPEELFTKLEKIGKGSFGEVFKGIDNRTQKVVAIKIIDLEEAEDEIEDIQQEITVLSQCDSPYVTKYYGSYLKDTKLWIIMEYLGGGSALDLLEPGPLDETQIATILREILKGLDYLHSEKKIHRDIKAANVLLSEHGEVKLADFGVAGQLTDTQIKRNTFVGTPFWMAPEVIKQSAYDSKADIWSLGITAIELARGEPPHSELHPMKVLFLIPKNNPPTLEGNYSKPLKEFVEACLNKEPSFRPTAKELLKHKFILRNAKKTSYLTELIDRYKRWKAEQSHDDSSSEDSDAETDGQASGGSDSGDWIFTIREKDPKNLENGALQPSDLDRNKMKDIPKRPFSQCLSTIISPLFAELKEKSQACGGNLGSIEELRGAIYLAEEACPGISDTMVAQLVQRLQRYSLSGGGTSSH
Chain of TBK1 (Q9UHD2 whole entry, species assumed): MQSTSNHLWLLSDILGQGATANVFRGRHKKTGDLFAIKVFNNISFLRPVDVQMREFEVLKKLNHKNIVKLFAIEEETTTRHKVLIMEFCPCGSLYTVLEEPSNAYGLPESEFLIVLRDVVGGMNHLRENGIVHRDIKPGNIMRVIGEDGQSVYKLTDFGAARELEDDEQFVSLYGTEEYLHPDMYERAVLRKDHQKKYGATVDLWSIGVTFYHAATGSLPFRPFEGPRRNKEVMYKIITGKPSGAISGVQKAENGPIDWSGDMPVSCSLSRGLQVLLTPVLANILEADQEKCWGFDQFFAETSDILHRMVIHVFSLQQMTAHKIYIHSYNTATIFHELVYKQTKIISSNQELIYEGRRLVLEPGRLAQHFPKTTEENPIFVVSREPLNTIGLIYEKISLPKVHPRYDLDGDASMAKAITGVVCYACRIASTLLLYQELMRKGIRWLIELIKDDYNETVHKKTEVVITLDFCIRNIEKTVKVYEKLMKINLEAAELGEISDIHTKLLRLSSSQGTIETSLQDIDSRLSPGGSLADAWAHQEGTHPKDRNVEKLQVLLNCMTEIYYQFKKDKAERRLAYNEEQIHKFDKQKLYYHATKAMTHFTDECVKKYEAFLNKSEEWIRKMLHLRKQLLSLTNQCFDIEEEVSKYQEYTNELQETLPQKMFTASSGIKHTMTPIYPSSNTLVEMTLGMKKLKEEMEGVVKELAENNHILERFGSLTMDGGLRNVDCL
Chain of ALK6/BMPR1B (O00238 14-502): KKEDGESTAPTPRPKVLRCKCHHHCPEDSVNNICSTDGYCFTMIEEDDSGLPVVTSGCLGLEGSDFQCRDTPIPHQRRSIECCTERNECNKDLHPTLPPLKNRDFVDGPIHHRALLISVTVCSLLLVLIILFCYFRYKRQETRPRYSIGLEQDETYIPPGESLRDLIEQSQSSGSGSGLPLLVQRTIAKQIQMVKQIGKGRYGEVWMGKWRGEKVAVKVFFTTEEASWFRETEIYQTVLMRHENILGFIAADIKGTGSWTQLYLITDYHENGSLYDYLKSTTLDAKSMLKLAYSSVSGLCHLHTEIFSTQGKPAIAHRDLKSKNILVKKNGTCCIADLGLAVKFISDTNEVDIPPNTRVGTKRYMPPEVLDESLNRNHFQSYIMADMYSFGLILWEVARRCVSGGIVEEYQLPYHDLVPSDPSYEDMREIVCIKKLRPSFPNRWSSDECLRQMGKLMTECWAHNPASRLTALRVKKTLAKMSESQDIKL
Chain of C-KIT (P10721 26-976): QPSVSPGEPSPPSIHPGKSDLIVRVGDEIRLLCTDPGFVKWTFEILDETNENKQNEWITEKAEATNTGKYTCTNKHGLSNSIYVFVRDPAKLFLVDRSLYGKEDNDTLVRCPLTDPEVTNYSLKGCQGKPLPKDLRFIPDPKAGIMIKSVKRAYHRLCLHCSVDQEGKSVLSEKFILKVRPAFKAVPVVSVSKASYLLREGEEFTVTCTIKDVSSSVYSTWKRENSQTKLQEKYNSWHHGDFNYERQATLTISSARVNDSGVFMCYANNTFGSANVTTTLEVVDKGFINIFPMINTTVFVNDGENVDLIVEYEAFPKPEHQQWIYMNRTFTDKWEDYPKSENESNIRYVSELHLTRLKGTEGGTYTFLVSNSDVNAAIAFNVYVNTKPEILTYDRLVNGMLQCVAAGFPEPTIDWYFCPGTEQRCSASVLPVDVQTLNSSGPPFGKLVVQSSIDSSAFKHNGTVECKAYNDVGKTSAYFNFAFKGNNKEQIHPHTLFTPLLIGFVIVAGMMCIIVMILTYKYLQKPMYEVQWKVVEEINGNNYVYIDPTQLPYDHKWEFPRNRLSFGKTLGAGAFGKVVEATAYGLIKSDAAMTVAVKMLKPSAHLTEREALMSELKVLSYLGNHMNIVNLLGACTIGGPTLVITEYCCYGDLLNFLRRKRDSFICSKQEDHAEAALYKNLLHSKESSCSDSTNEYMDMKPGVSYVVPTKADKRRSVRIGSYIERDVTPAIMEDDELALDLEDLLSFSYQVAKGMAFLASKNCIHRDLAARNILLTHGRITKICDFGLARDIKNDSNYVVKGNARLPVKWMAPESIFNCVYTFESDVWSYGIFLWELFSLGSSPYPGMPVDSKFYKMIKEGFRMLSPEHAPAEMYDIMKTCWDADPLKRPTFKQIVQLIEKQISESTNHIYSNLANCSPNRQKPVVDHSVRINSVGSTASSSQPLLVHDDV
Chain of SNRK (Q9NRH2 whole entry, species assumed): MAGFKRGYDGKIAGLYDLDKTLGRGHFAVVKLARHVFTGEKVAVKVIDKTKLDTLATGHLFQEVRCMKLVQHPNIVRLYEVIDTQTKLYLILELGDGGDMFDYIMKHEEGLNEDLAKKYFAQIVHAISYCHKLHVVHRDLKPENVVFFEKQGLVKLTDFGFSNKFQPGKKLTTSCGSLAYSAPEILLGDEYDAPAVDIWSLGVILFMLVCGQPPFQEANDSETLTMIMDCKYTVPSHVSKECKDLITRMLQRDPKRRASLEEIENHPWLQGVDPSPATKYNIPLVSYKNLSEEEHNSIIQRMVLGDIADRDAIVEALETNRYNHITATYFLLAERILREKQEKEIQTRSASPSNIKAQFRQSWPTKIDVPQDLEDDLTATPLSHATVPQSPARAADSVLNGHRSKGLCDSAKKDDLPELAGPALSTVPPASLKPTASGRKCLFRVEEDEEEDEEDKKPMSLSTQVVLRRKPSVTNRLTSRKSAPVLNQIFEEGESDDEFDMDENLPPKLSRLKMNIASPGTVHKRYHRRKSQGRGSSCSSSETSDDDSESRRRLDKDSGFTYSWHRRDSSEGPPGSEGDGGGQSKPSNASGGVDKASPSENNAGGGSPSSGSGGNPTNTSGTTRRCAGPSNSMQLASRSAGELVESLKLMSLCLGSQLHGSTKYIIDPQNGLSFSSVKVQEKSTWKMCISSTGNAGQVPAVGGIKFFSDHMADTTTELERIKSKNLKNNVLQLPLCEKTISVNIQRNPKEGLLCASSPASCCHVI
Chain of NEK7 (Q8TDX7 whole entry, species assumed): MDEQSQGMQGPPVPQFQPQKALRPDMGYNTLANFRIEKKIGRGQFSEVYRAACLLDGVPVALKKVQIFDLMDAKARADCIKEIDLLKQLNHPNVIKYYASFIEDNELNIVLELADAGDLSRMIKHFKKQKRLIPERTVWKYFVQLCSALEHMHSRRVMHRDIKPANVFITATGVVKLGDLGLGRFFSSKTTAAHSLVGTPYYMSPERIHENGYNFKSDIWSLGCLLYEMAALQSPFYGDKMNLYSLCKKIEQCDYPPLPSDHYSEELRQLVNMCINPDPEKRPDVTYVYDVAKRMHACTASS

Q: With Cc1cn(-c2cc(C(=O)Nc3ccc(C)c(N4Cc5cnc(NC6CC6)nc5C5(CC5)C4=O)c3)cc(C(F)(F)F)c2)cn1 [Compound 8, N-(3-(2'-(cyclopropylamino)-7'-oxo-5'H-spiro[cyclopropane-1,8'-pyrido[4,3-d]pyrimidine]-6'(7'H)-yl)-4-methylphenyl)-3-(4-methyl-1H-imidazol-1-yl)-5-(trifluoromethyl)benzamide] as the compound, how does the remaining activity at 1 µM (ALK6/BMPR1B) read?
A: Its remaining activity at 1 µM is over 40%.

Q: What about the remaining activity at 1 µM (AXL) of the same compound?
A: The remaining activity at 1 µM was over 40%.

Q: What about the remaining activity at 1 µM (C-KIT; C-KIT) of the same compound?
A: Its remaining activity at 1 µM is at most 40%.

Q: What about the remaining activity at 1 µM (C-MER; C-MER) of the same compound?
A: Its remaining activity at 1 µM is over 40%.

Q: And the remaining activity at 1 µM (CAMK2A; CAMK2A)?
A: Its remaining activity at 1 µM is over 40%.

Q: And the remaining activity at 1 µM (CAMK2B; CAMK2B)?
A: Its remaining activity at 1 µM is over 40%.

Q: What about the remaining activity at 1 µM (CDK1/CYCLIN E) of the same compound?
A: The remaining activity at 1 µM was over 40%.

Q: And the remaining activity at 1 µM (CDK17/CYCLIN Y (PCTK2))?
A: The remaining activity at 1 µM was over 40%.

Q: And the remaining activity at 1 µM (CHK2)?
A: The remaining activity at 1 µM was over 40%.

Q: And the remaining activity at 1 µM (CLK4)?
A: The remaining activity at 1 µM was over 40%.

Q: What about the remaining activity at 1 µM (ERBB4/HER4) of the same compound?
A: Its remaining activity at 1 µM is at most 40%.

Q: What about the remaining activity at 1 µM (GRK2) of the same compound?
A: The remaining activity at 1 µM was over 40%.

Q: What about the remaining activity at 1 µM (HCK) of the same compound?
A: Its remaining activity at 1 µM is at most 40%.

Q: And the remaining activity at 1 µM (HGK/MAP4K4)?
A: Its remaining activity at 1 µM is at most 40%.

Q: What about the remaining activity at 1 µM (HIPK1) of the same compound?
A: The remaining activity at 1 µM was over 40%.

Q: What about the remaining activity at 1 µM (IKKB/IKBKB) of the same compound?
A: Its remaining activity at 1 µM is over 40%.

Q: And the remaining activity at 1 µM (JNK3)?
A: Its remaining activity at 1 µM is over 40%.

Q: And the remaining activity at 1 µM (LATS1)?
A: Its remaining activity at 1 µM is over 40%.

Q: And the remaining activity at 1 µM (MEK1)?
A: Its remaining activity at 1 µM is over 40%.

Q: And the remaining activity at 1 µM (MLCK/MYLK)?
A: Its remaining activity at 1 µM is over 40%.

Q: What about the remaining activity at 1 µM (MST3/STK24) of the same compound?
A: Its remaining activity at 1 µM is over 40%.

Q: And the remaining activity at 1 µM (MST4)?
A: Its remaining activity at 1 µM is over 40%.

Q: What about the remaining activity at 1 µM (NEK7) of the same compound?
A: Its remaining activity at 1 µM is over 40%.

Q: What about the remaining activity at 1 µM (PAK1) of the same compound?
A: The remaining activity at 1 µM was over 40%.

Q: What about the remaining activity at 1 µM (PASK) of the same compound?
A: Its remaining activity at 1 µM is over 40%.

Q: What about the remaining activity at 1 µM (PIM3) of the same compound?
A: Its remaining activity at 1 µM is over 40%.

Q: And the remaining activity at 1 µM (PKACB)?
A: The remaining activity at 1 µM was over 40%.

Q: And the remaining activity at 1 µM (PKCNU/PRKD3)?
A: The remaining activity at 1 µM was over 40%.

Q: What about the remaining activity at 1 µM (RON/MSTIR) of the same compound?
A: The remaining activity at 1 µM was over 40%.

Q: What about the remaining activity at 1 µM (RSK4) of the same compound?
A: The remaining activity at 1 µM was over 40%.

Q: And the remaining activity at 1 µM (SIK3)?
A: Its remaining activity at 1 µM is at most 40%.

Q: What about the remaining activity at 1 µM (SNRK) of the same compound?
A: The remaining activity at 1 µM was over 40%.

Q: And the remaining activity at 1 µM (TBK1)?
A: Its remaining activity at 1 µM is over 40%.

Q: And the remaining activity at 1 µM (TIE2/TEK)?
A: The remaining activity at 1 µM was at most 40%.

Q: What about the remaining activity at 1 µM (TNK1) of the same compound?
A: Its remaining activity at 1 µM is at most 40%.

Q: Which results are given for Cc1ccc(Nc2ncc3c(n2)C2(CC2)C(=O)N(c2cc(NC(=O)c4cccc(C(F)(F)F)c4)ccc2C)C3)cn1 [Compound 51, N-(4-methyl-3-(2'-((6-methylpyridin-3-yl)amino)-7'-oxo-5'H-spiro[cyclopropane-1,8'-pyrido[4,3-d]pyrimidine]-6'(7'H)-yl)phenyl)-3-(trifluoromethyl)benzamide]?
A: remaining activity at 1 µM (ALK6/BMPR1B): > 40%; remaining activity at 1 µM (AXL): > 40%; remaining activity at 1 µM (C-KIT; c-Kit): ≤ 40%; remaining activity at 1 µM (C-MER; c-MER): > 40%; remaining activity at 1 µM (CAMK2A; CAMK2a): > 40%; remaining activity at 1 µM (CAMK2B; CAMK2b): > 40%; remaining activity at 1 µM (CDK1/CYCLIN E): > 40%; remaining activity at 1 µM (CDK17/CYCLIN Y (PCTK2)): > 40%; remaining activity at 1 µM (CHK2): > 40%; remaining activity at 1 µM (CLK4): > 40%; remaining activity at 1 µM (ERBB4/HER4): ≤ 40%; remaining activity at 1 µM (GRK2): > 40%; remaining activity at 1 µM (HCK): ≤ 40%; remaining activity at 1 µM (HGK/MAP4K4): ≤ 40%; remaining activity at 1 µM (HIPK1): > 40%; remaining activity at 1 µM (IKKB/IKBKB): > 40%; remaining activity at 1 µM (JNK3): ≤ 40%; remaining activity at 1 µM (LATS1): > 40%; remaining activity at 1 µM (MEK1): > 40%; remaining activity at 1 µM (MLCK/MYLK): > 40%; remaining activity at 1 µM (MST3/STK24): > 40%; remaining activity at 1 µM (MST4): > 40%; remaining activity at 1 µM (NEK7): > 40%; remaining activity at 1 µM (PAK1): > 40%; remaining activity at 1 µM (PASK): > 40%; remaining activity at 1 µM (PIM3): > 40%; remaining activity at 1 µM (PKACB): > 40%; remaining activity at 1 µM (PKCNU/PRKD3): > 40%; remaining activity at 1 µM (RON/MSTIR): > 40%; remaining activity at 1 µM (RSK4): > 40%; remaining activity at 1 µM (SIK3): ≤ 40%; remaining activity at 1 µM (SNRK): > 40%; remaining activity at 1 µM (TBK1): > 40%; remaining activity at 1 µM (TIE2/TEK): ≤ 40%; remaining activity at 1 µM (TNK1): ≤ 40%
